Source: patent US6339042B1, “Herbicidal N-cyclohexadienyl heteroaryloxyacetamides” (American Cyanamid Co., priority 1999, dated 2002)

What was measured:
Amaranthus tuberculatus [1] = assay: Pre-emergence herbicidal evaluation, AMATA; format: in vivo; details: three weeks after treatment
Source text: (§1) The treated pots are then placed on greenhouse benches, watered and cared for in accordance with conventional greenhouse procedures.

Glycine max [2] = assay: Pre-emergence herbicidal evaluation, GLXMA; format: in vivo; details: three weeks after treatment
Source text: as §1

Zea mays [3] = assay: Pre-emergence herbicidal evaluation, ZEAMX; format: in vivo; details: three weeks after treatment
Source text: as §1

Glycine max [4] = assay: Post-emergence herbicidal evaluation, GLXMA; details: three weeks after treatment
Hordeum vulgare [5] = assay: Pre-emergence herbicidal evaluation, HORVW; format: in vivo; details: three weeks after treatment
Source text: as §1

Apera spica venti [6] = assay: Post-emergence herbicidal evaluation, APESV; details: three weeks after treatment
Setaria viridis [7] = assay: Pre-emergence herbicidal evaluation, SETVI; format: in vivo; details: three weeks after treatment
Source text: as §1

Apera spica venti [8] = assay: Pre-emergence herbicidal evaluation, APESV; format: in vivo; details: three weeks after treatment
Source text: as §1

Oryza sativum [9] = assay: Pre-emergence herbicidal evaluation, ORYSA; format: in vivo; details: three weeks after treatment
Source text: as §1

Triticum aestivum [10] = assay: Pre-emergence herbicidal evaluation, TRZAW; format: in vivo; details: three weeks after treatment
Source text: as §1

Echinochloa crus-galli [11] = assay: Post-emergence herbicidal evaluation, ECHCG; details: three weeks after treatment
Setaria viridis [12] = assay: Post-emergence herbicidal evaluation, SETVI; details: three weeks after treatment
Procedure: The compounds of the invention are tested for pre- and post-emergence herbicidal activity.
(§2) Each pot is examined three weeks after treatment and phytotoxicity is assessed according to the rating system set forth below.
(§3) These acetone solutions are diluted with water and the resulting formulations applied at dosage levels equivalent of about 0.4 to 0.1 kg per hectare of test compound per pot. After spraying the plants are placed on greenhouse benches and are cared for in the usual manner, commensurate with conventional greenhouse practices.

Galium aparine = assay: Post-emergence herbicidal evaluation, GALAP; details: three weeks after treatment
Echinochloa crus-galli [13] = assay: Pre-emergence herbicidal evaluation, ECHCG; format: in vivo; details: three weeks after treatment
Source text: as §1

Lolium perenne [14] = assay: Post-emergence herbicidal evaluation, LOLPE; details: three weeks after treatment
Procedure: as §2, §3

Lolium perenne [15] = assay: Pre-emergence herbicidal evaluation, LOLPE; format: in vivo; details: three weeks after treatment
Source text: as §1

Hordeum vulgare [16] = assay: Post-emergence herbicidal evaluation, HORVW; details: three weeks after treatment
Zea mays [17] = assay: Post-emergence herbicidal evaluation, ZEAMX; details: three weeks after treatment
Procedure: as §2, §3

Triticum aestivum [18] = assay: Post-emergence herbicidal evaluation, TRZAW; details: three weeks after treatment
Procedure: as §2, §3

Alopecurus myosuroides [19] = assay: Post-emergence herbicidal evaluation, ALOMY; details: three weeks after treatment
Alopecurus myosuroides [20] = assay: Pre-emergence herbicidal evaluation, ALOMY; format: in vivo; details: three weeks after treatment
Source text: as §1

Amaranthus tuberculatus [21] = assay: Post-emergence herbicidal evaluation, AMATA; format: in vivo; details: three weeks after treatment
Oryza sativum [22] = assay: Post-emergence herbicidal evaluation, ORYSA; details: three weeks after treatment

CCN(C(=O)COc1nnc(C(F)(F)C(F)(F)F)s1)C1=CC(C)(C)CC(C)=C1 [Example 8]
phytotoxicity rating AMATA (Amaranthus tuberculatus [1]; 0.100 kg/ha): 0 (0 - No effect) | phytotoxicity rating AMATA (Amaranthus tuberculatus [1]; 0.200 kg/ha): 1 (1 - Trace effect) | phytotoxicity rating AMATA (Amaranthus tuberculatus [1]; 0.400 kg/ha): 5 (5 - Definite injury) | phytotoxicity rating AMATA (Amaranthus tuberculatus [1]; 0.800 kg/ha): 6 (6 - Herbicidal effect) | phytotoxicity rating GLXMA (Glycine max [2]; 0.100 kg/ha): 0 (0 - No effect) | phytotoxicity rating GLXMA (Glycine max [2]; 0.200 kg/ha): 0 (0 - No effect) | phytotoxicity rating GLXMA (Glycine max [2]; 0.400 kg/ha): 0 (0 - No effect) | phytotoxicity rating GLXMA (Glycine max [2]; 0.800 kg/ha): 0 (0 - No effect) | phytotoxicity rating ZEAMX (Zea mays [3]; 0.100 kg/ha): 0 (0 - No effect) | phytotoxicity rating ZEAMX (Zea mays [3]; 0.200 kg/ha): 0 (0 - No effect) | phytotoxicity rating ZEAMX (Zea mays [3]; 0.400 kg/ha): 0 (0 - No effect) | phytotoxicity rating ZEAMX (Zea mays [3]; 0.800 kg/ha): 0 (0 - No effect) | phytotoxicity rating GLXMA (Glycine max [4]; 0.100 kg/ha): 2 (2 - Slight effect) | phytotoxicity rating GLXMA (Glycine max [4]; 0.200 kg/ha): 3 (3 - Moderate effect) | phytotoxicity rating GLXMA (Glycine max [4]; 0.400 kg/ha): 4 (4 - Injury) | melting point: 55 °C | phytotoxicity rating HORVW (Hordeum vulgare [5]; 0.100 kg/ha): 0 (0 - No effect) | phytotoxicity rating HORVW (Hordeum vulgare [5]; 0.200 kg/ha): 0 (0 - No effect) | phytotoxicity rating HORVW (Hordeum vulgare [5]; 0.400 kg/ha): 1 (1 - Trace effect) | phytotoxicity rating HORVW (Hordeum vulgare [5]; 0.800 kg/ha): 2 (2 - Slight effect) | phytotoxicity rating APESV (Apera spica venti [6]; 0.100 kg/ha): 0 (0 - No effect) | phytotoxicity rating APESV (Apera spica venti [6]; 0.200 kg/ha): 4 (4 - Injury) | phytotoxicity rating APESV (Apera spica venti [6]; 0.400 kg/ha): 6 (6 - Herbicidal effect) | phytotoxicity rating SETVI (Setaria viridis [7]; 0.100 kg/ha): 1 (1 - Trace effect) | phytotoxicity rating SETVI (Setaria viridis [7]; 0.200 kg/ha): 4 (4 - Injury) | phytotoxicity rating SETVI (Setaria viridis [7]; 0.400 kg/ha): 4 (4 - Injury) | phytotoxicity rating SETVI (Setaria viridis [7]; 0.800 kg/ha): 7 (7 - Good herbicidal effect) | phytotoxicity rating APESV (Apera spica venti [8]; 0.100 kg/ha): 0 (0 - No effect) | phytotoxicity rating APESV (Apera spica venti [8]; 0.200 kg/ha): 0 (0 - No effect) | phytotoxicity rating APESV (Apera spica venti [8]; 0.400 kg/ha): 8 (8 - Approaching complete kill) | phytotoxicity rating APESV (Apera spica venti [8]; 0.800 kg/ha): 9 (9 - Complete kill) | phytotoxicity rating ORYSA (Oryza sativum [9]; 0.100 kg/ha): 0 (0 - No effect) | phytotoxicity rating ORYSA (Oryza sativum [9]; 0.200 kg/ha): 0 (0 - No effect) | phytotoxicity rating ORYSA (Oryza sativum [9]; 0.400 kg/ha): 0 (0 - No effect) | phytotoxicity rating ORYSA (Oryza sativum [9]; 0.800 kg/ha): 1 (1 - Trace effect) | phytotoxicity rating TRZAW (Triticum aestivum [10]; 0.100 kg/ha): 0 (0 - No effect) | phytotoxicity rating TRZAW (Triticum aestivum [10]; 0.200 kg/ha): 0 (0 - No effect) | phytotoxicity rating TRZAW (Triticum aestivum [10]; 0.400 kg/ha): 0 (0 - No effect) | phytotoxicity rating TRZAW (Triticum aestivum [10]; 0.800 kg/ha): 0 (0 - No effect) | phytotoxicity rating ECHCG (Echinochloa crus-galli [11]; 0.100 kg/ha): 0 (0 - No effect) | phytotoxicity rating ECHCG (Echinochloa crus-galli [11]; 0.200 kg/ha): 0 (0 - No effect) | phytotoxicity rating ECHCG (Echinochloa crus-galli [11]; 0.400 kg/ha): 0 (0 - No effect) | phytotoxicity rating SETVI (Setaria viridis [12]; 0.100 kg/ha): 0 (0 - No effect) | phytotoxicity rating SETVI (Setaria viridis [12]; 0.200 kg/ha): 0 (0 - No effect) | phytotoxicity rating SETVI (Setaria viridis [12]; 0.400 kg/ha): 0 (0 - No effect) | phytotoxicity rating GALAP (Galium aparine; 0.100 kg/ha): 0 (0 - No effect) | phytotoxicity rating GALAP (Galium aparine; 0.200 kg/ha): 0 (0 - No effect) | phytotoxicity rating GALAP (Galium aparine; 0.400 kg/ha): 5 (5 - Definite injury) | phytotoxicity rating ECHCG (Echinochloa crus-galli [13]; 0.100 kg/ha): 1 (1 - Trace effect) | phytotoxicity rating ECHCG (Echinochloa crus-galli [13]; 0.200 kg/ha): 4 (4 - Injury) | phytotoxicity rating ECHCG (Echinochloa crus-galli [13]; 0.400 kg/ha): 4 (4 - Injury) | phytotoxicity rating ECHCG (Echinochloa crus-galli [13]; 0.800 kg/ha): 8 (8 - Approaching complete kill) | phytotoxicity rating LOLPE (Lolium perenne [14]; 0.100 kg/ha): 1 (1 - Trace effect) | phytotoxicity rating LOLPE (Lolium perenne [14]; 0.200 kg/ha): 7 (7 - Good herbicidal effect) | phytotoxicity rating LOLPE (Lolium perenne [14]; 0.400 kg/ha): 8 (8 - Approaching complete kill) | phytotoxicity rating LOLPE (Lolium perenne [15]; 0.100 kg/ha): 1 (1 - Trace effect) | phytotoxicity rating LOLPE (Lolium perenne [15]; 0.200 kg/ha): 4 (4 - Injury) | phytotoxicity rating LOLPE (Lolium perenne [15]; 0.400 kg/ha): 6 (6 - Herbicidal effect) | phytotoxicity rating LOLPE (Lolium perenne [15]; 0.800 kg/ha): 6 (6 - Herbicidal effect) | phytotoxicity rating HORVW (Hordeum vulgare [16]; 0.100 kg/ha): 0 (0 - No effect) | phytotoxicity rating HORVW (Hordeum vulgare [16]; 0.200 kg/ha): 0 (0 - No effect) | phytotoxicity rating HORVW (Hordeum vulgare [16]; 0.400 kg/ha): 0 (0 - No effect) | phytotoxicity rating ZEAMX (Zea mays [17]; 0.100 kg/ha): 0 (0 - No effect) | phytotoxicity rating ZEAMX (Zea mays [17]; 0.200 kg/ha): 0 (0 - No effect) | phytotoxicity rating ZEAMX (Zea mays [17]; 0.400 kg/ha): 0 (0 - No effect) | phytotoxicity rating TRZAW (Triticum aestivum [18]; 0.100 kg/ha): 0 (0 - No effect) | phytotoxicity rating TRZAW (Triticum aestivum [18]; 0.200 kg/ha): 0 (0 - No effect) | phytotoxicity rating TRZAW (Triticum aestivum [18]; 0.400 kg/ha): 1 (1 - Trace effect) | phytotoxicity rating ALOMY (Alopecurus myosuroides [19]; 0.100 kg/ha): 0 (0 - No effect) | phytotoxicity rating ALOMY (Alopecurus myosuroides [19]; 0.200 kg/ha): 4 (4 - Injury) | phytotoxicity rating ALOMY (Alopecurus myosuroides [19]; 0.400 kg/ha): 4 (4 - Injury) | phytotoxicity rating ALOMY (Alopecurus myosuroides [20]; 0.100 kg/ha): 1 (1 - Trace effect) | phytotoxicity rating ALOMY (Alopecurus myosuroides [20]; 0.200 kg/ha): 4 (4 - Injury) | phytotoxicity rating ALOMY (Alopecurus myosuroides [20]; 0.400 kg/ha): 6 (6 - Herbicidal effect) | phytotoxicity rating ALOMY (Alopecurus myosuroides [20]; 0.800 kg/ha): 8 (8 - Approaching complete kill) | phytotoxicity rating AMATA (Amaranthus tuberculatus [21]; 0.100 kg/ha): 0 (0 - No effect) | phytotoxicity rating AMATA (Amaranthus tuberculatus [21]; 0.200 kg/ha): 0 (0 - No effect) | phytotoxicity rating AMATA (Amaranthus tuberculatus [21]; 0.400 kg/ha): 0 (0 - No effect) | phytotoxicity rating ORYSA (Oryza sativum [22]; 0.100 kg/ha): 0 (0 - No effect) | phytotoxicity rating ORYSA (Oryza sativum [22]; 0.200 kg/ha): 0 (0 - No effect) | phytotoxicity rating ORYSA (Oryza sativum [22]; 0.400 kg/ha): 2 (2 - Slight effect)
